Counter-ions that a name gives are not always drawn.

One series deals with T1, PDE3 (cGMP-inhibited) (Homo sapiens, UniProt Q14432).
T1 construct: investigated in homogenates of human platelets; from tissue; host or cells: homogenates of human platelets
Briefly: Inhibition of PDE3 activity, Method A (homogenates of human platelets). The class given is biochemical. The note with it: read-out: PDE3 Inhibition [measured as −logIC50 (mol/l)] (converted). On the procedure:
The PDE activity was determined according to Thompson et al. (Adv Cycl Nucl Res 10: 69-92, 1979) with some modifications (Bauer and Schwabe, Naunyn-Schmiedeberg's Arch Pharmacol 311: 193-198, 1980). The test samples contained 20 mM Tris (pH 7.4), 5 mM MgCl2, 0.5 μM cAMP or cGMP, [^3H]cAMP or [^3H]cGMP (about 30 000 cpm/sample), the PDE isoenzyme-specific additives described in greater detail below, the indicated concentrations of inhibitor and an aliquot of the enzyme solution in a total sample volume of 200 μl. Dilution series of the compounds according to the invention were prepared in DMSO and further diluted in the samples [1:100 (v/v)], to give the desired end concentration of the inhibitors at a DMSO concentration of 1% (v/v), which for its part has only a minute effect on PDE activity.
After preincubation at 37° C. for 5 minutes, the reaction was started by addition of the substrate (cAMP or cGMP). The samples were incubated at 37° C. for a further 15 min. The reaction was terminated by addition of 50 μl 0.2 N HCl. After cooling on ice for 10 minutes and addition of 25 μg 5′-nucleotidase (snake venom from Crotalus atrox), the mixture was again incubated at 37° C. for 10 mih and the samples were then applied to QAE Sephadex A-25 columns (sample volume 1 ml). The columns were eluted with 2 ml of 30 mM ammonium formate (pH 6.0). The radioactivity of the eluate was measured and corrected by the corresponding blank values (measured in the presence of denatured protein); the blank values were less than 5% of the total radioactivity. In no case did the proportion of hydrolyzed nucleotide exceed 30% of the original substrate concentration.
PDE3 (cGMP-inhibited) was investigated in homogenates of human platelets (see Schudt et al., Biochem Pharmacol 1991: 42, 153-162) using cAMP or cGMP as substrate.
The IC50 values were determined from the concentration-inhibition curves by nonlinear regression.

T1 sequence (Q14432 whole entry): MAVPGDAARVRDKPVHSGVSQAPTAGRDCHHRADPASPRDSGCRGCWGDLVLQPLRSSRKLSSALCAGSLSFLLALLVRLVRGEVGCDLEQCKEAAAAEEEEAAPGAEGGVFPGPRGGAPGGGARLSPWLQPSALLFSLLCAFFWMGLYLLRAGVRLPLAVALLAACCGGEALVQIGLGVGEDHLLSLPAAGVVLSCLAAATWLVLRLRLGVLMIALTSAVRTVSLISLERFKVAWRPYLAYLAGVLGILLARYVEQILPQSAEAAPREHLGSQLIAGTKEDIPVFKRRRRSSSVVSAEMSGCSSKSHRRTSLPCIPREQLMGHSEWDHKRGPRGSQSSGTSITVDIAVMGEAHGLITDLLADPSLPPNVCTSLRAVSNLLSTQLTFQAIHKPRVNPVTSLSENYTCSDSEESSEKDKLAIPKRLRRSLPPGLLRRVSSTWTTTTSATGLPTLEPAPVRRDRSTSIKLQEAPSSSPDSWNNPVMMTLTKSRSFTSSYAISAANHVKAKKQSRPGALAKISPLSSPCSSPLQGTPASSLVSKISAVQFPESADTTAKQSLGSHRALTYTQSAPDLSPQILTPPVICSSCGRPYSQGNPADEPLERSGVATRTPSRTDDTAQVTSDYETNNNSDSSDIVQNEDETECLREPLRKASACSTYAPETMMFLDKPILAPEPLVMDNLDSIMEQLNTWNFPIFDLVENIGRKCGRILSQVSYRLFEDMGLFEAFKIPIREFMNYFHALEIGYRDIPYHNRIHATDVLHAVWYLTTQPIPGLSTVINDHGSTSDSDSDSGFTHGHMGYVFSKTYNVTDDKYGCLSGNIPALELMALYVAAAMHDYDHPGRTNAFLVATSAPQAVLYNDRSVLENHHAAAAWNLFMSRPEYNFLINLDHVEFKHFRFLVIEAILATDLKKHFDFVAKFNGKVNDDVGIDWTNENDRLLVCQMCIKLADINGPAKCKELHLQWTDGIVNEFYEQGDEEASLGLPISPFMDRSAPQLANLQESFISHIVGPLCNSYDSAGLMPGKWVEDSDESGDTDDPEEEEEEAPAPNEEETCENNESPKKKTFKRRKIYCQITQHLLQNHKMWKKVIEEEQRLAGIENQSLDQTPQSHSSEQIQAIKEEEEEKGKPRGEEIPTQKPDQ

Compound `COc1ccc(S(=O)(=O)N2CCC(N3N=C(c4ccc(OC)c(OC)c4)CCC3=O)CC2)cc1` [Compound 15, 6-(3,4-Dimethoxy-phenyl)-2-[1-(4-methoxy-benzenesulfonyl)-piperidin-4-yl]-4,5-dihydro-2H-pyridazin-3-one] had a melting point of 197 to 198 °C. Also, the IC50 on PDE3 (cGMP-inhibited) is 501 nM.

As to `COc1ccc(C2=NN(C3CCN(S(=O)(=O)c4cccc5c(N(C)C)cccc45)CC3)C(=O)CC2)cc1OC` [Compound 9, 6-(3,4-Dimethoxy-phenyl)-2-[1-(5-dimethylamino-naphthalene-1-sulfonyl)-piperidin-4-yl]-4,5-dihydro-2-pyridazin-3-one], the melting point was 191 to 193 °C. The IC50 at PDE3 (cGMP-inhibited) is 245 nM.

For the compound `COc1ccc(C2=NN(C3CCN(S(=O)(=O)c4ccccc4C#N)CC3)C(=O)CC2)cc1OC` [Compound 18, 2-{4-[3-(3,4-Dimethoxy-phenyl)-6-oxo-5,6-dihydro-4H-pyridazin-1-yl]-piperidine-1-sulfonyl}-benzonitrile], the melting point lay in the range of 158 to 160 °C. The IC50 at PDE3 (cGMP-inhibited) was 79.4 nM.

Turning to `COc1ccc(C2=NN(C3CCN(S(=O)(=O)Cc4ccccc4)CC3)C(=O)CC2)cc1OC` [Compound 14, 6-(3,4-Dimethoxy-phenyl)-2-(1-phenylmethanesulfonyl-piperidin-4-yl)-4,5-dihydro-2H-pyridazin-3-one], the melting point was 114 °C. Besides, the IC50 on PDE3 (cGMP-inhibited) is 251 nM.

As to `COc1ccc(C2=NN(C3CCN(CC(=O)N4CCOCC4)CC3)C(=O)CC2)cc1OC` (as salt: hydrochloride) [Compound 10, 6-(3,4-Dimethoxy-phenyl)-2-[1-(2-morpholin4-yl-2-oxo-ethyl)-piperidin-4-yl]-4,5-dihydro-2-pyridazin-3-one hydrochloride], the melting point was 145 to 148 °C.

Consider `COc1ccc(C2=NN(C3CCN(S(=O)(=O)c4ccccc4F)CC3)C(=O)CC2)cc1OC` [Compound 20, 6-(3,4-Dimethoxy-phenyl)-2-[1-(2-fluoro-benzenesulfonyl)-Piperidin-4-yl]-4,5-dihydro-2H-pyridazin-3-one], for which the melting point is 198 to 199 °C. Moreover, the IC50 at PDE3 (cGMP-inhibited) was 158 nM.

For `COc1ccc(C2=NN(C3CCN(S(=O)(=O)N(C)C)CC3)C(=O)CC2)cc1OC` [Compound 22, 4-[3-(3,4-Dimethoxy-phenyl)-6-oxo-5,6-dihydro-4H-pyridazin-1-yl]-piperidine-1-sulfonic acid dimethylamide], the melting point lay within 103 to 106 °C.

On to `COc1ccc(C2=NN(C3CCN(C(=O)NC(C)(C)C)CC3)C(=O)CC2)cc1OC` [Compound 26, 4-[3-(3,4-Dimethoxy-phenyl)-6-oxo-5,6-dihydro-4H-pyridazin-1-yl]-piperidine-1-carboxylic acid tert-butylamide], for which the melting point was 76 to 78 °C.

Take `COc1ccc(C2=NN(C3CCNCC3)C(=O)CC2C)cc1OC.Cl` (stereo not drawn): the melting point lay in the range of 91 to 95 °C.

Take `COc1ccc(C2=NN(C3CCN(CC(=O)N4CCOCC4)CC3)C(=O)CC2)cc1OC` [Compound 10, 6-(3,4-Dimethoxy-phenyl)-2-[1-(2-morpholin4-yl-2-oxo-ethyl)-piperidin-4-yl]-4,5-dihydro-2-pyridazin-3-one hydrochloride]: the IC50 on PDE3 (cGMP-inhibited) was 4470 nM.

Regarding `COc1ccc(C2=NN(C3CCN(C(C)=O)CC3)C(=O)CC2C)cc1OC` (stereo not drawn) [Compound 4, 2-(1-Acetyl-piperidin-4-yl)-6-(3,4-dimethoxy-phenyl)-5-methyl-4,5-dihydro-2H-pyridazin-3-one], the melting point was 149 to 152 °C. Also, at PDE3 (cGMP-inhibited), the IC50 was 1740 nM.

Consider `COc1ccc(C2=NN(C3CCN(S(=O)(=O)c4ccccc4OC(F)(F)F)CC3)C(=O)CC2)cc1OC` [Compound 21, 6-(3,4-Dimethoxy-phenyl)-2-[1-(2-trifluoromethoxy-benzenesulfonyl)-piperidin-4-yl]-4,5-dihydro-2H-pyridazin-3-one], for which the melting point was in the range of 118 to 119 °C. The IC50 on PDE3 (cGMP-inhibited) is 100 nM.

Regarding `COc1ccc(C2=NN(C3CCN(Cc4cccnc4)CC3)C(=O)CC2C)cc1OC.Cl.Cl` (stereo not drawn) [Compound 6, 6-(3,4-Dimethoxy-phenyl)-5-methyl-2-(1-pyridin-3-ylmethyl-piperidin-4-yl)-4,5-dihydro-2H-pyridazin-3-one dihydrochloride], the melting point is 241 to 244 °C. In addition, at PDE3 (cGMP-inhibited), the IC50 is 5890 nM.

Compound `COc1ccc(C2=NN(C3CCN(S(C)(=O)=O)CC3)C(=O)CC2)cc1OC` [Compound 12, 6-(3,4-Dimethoxy-phenyl)-2-(1-methanesulfonyl-piperidin-4-yl)-4,5-dihydro-2H-pyridazin-3-one] showed a melting point of 164 to 166 °C. The IC50 at PDE3 (cGMP-inhibited) was 251 nM.

`COc1ccc(C2=NN(C3CCN(C(=O)c4cccnc4)CC3)C(=O)CC2)cc1OC` [Compound 24, 6-(3,4-Dimethoxy-phenyl)-2-[1-(1-pyridin-3-yl-methanoyl)-piperidin-4-yl]-4,5-dihydro-2H-pyridazin-3-one] returned a melting point of 162 to 164 °C.

`COc1ccc(C2=NN(C3CCN(C(=O)CN4CCN(c5ccccc5OC)CC4)CC3)C(=O)CC2)cc1OC.Cl.Cl` yielded a melting point of 109 to 110 °C.

Compound `COc1ccc(C2=NN(C3CCN(S(=O)(=O)c4ccc(C)cc4)CC3)C(=O)CC2)cc1OC` [Compound 11, 6-(3,4-Dimethoxy-phenyl)-2-[1-(toluene-4-sulfonyl)-piperidin-4-yl]-4,5-dihydro-2H-pyridazin-3-one] displayed a melting point of 179 to 184 °C. In addition, at PDE3 (cGMP-inhibited), the IC50 is 501 nM.

The compound `COc1ccc(C2=NN(C3CCN(S(=O)(=O)c4ccc(Cl)cc4)CC3)C(=O)CC2)cc1OC` [Compound 13, 2-[1-(4-Chloro-benzenesulfonyl)-piperidin-4-yl]-6-(3,4-dimethoxy-phenyl)-4,5-dihydro-2H-pyridazin-3-one] returned a melting point of 185 to 186 °C.

In turn, `COc1ccc(C2=NN(C3CCN(C(=O)N4CCN(C)CC4)CC3)C(=O)CC2)cc1OC.Cl` [Compound 8, 6-(3,4-Dimethoxy-phenyl)-2-{1-[1-(4-methyl-piperazin-1-yl)-methanoyl]-piperidin-4-yl}-4,5-dihydro-2H-pyridazin-3-one hydrochloride] displayed a melting point of 151 to 154 °C. Also, the IC50 on PDE3 (cGMP-inhibited) is more than 10000 nM.

`COc1ccc(C2=NN(C3CCN(C(=O)N4CCOCC4)CC3)C(=O)CC2C)cc1OC` (stereo not drawn) [Compound 5] yielded a melting point of 137 to 138 °C. Further, the IC50 on PDE3 (cGMP-inhibited) was 1780 nM.

Take `COc1ccc(C2=NN(C3CCN(CC(=O)N(C)C)CC3)C(=O)CC2)cc1OC.Cl` [Compound 27, 2-{4-[3-(3,4-Dimethoxy-phenyl)-6-oxo-5,6-dihydro-4H-pyridazin-1-yl]-piperidin-1-yl}-N,N-dimethylacetamide hydrochloride]: the melting point fell in the range of 121 to 122 °C. Further, the IC50 on PDE3 (cGMP-inhibited) is more than 10000 nM.

In the case of `CCN1CCN(C(=O)N2CCC(N3N=C(c4ccc(OC)c(OC)c4)CCC3=O)CC2)C(=O)C1=O` [Compound 7], the melting point lay in the range of 201 to 203 °C. In addition, on PDE3 (cGMP-inhibited), the IC50 was more than 10000 nM.

Usually melting point stands for the temperature of the solid-liquid transition.
